Consider 93 compounds from PubChem BioAssay AID602156 (GNF / Scripps Winzeler lab, 2011).

The assay deals with P. yoelii liver stage in HepG2-A16-CD81EGFP, imaging. The assay is described as follows: Plasmodium liver-stage growth inhibition, dose response, imaging, Malaria Box, P. yoelii, HepG2-A16-CD81EGFP (AID 602156).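 Note: infected cells exposed to compound for 48 hours before fixation.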

Structures are written as SMILES. Active and inactive are the calls of the source. The rule behind the calls is not given here. A value given as a limit tells only on which side of the number the result lay.

Regarding `Cc1ccc(Nc2nc3c(N)nnc(N)c3nc2Nc2ccc(C)cc2)cc1`, the IC50 is 488 nM.

With `COc1ccc2nc(SCC(=O)Nc3cccc(NC(=O)CSc4nc5ccc(OC)cc5[nH]4)n3)[nH]c2c1`, the IC50 is > 9290 nM (inactive).

In the case of `Cc1ccc2[nH]c(C)c(Br)c(=O)c2c1`, the IC50 was 252 nM.

In the case of `Cc1[nH]c2ccc(Br)cc2c(=O)c1CC(C)C`, the IC50 is 244 nM.

For `C[C@@H]1CCC[C@@H](C[C@H]2Cc3cc(O)cc(O)c3C(=O)O2)O1`, the IC50 was 112 nM.

For the compound `O=C(c1cc2nc(-c3ccccc3)cc(C(F)(F)F)n2n1)N1CCN(Cc2ccccc2)CC1`, the IC50 is > 10000 nM (inactive).

As to `O=c1c2c([nH]c3ccccc13)CCCCCC2`, the IC50 is 727 nM.

Take `N#CC1=C(N)Oc2c3c(c4ccccc4c2C1c1ccc(F)cc1)C(c1ccc(F)cc1)C(C#N)=C(N)O3` (stereo not drawn): the half-maximal inhibitory concentration (IC50) is 3930 nM.

With `Cc1ccc(-n2c(-c3ccccc3)cc(C=NNC(=O)c3cccc(-n4c(C)ccc4C)c3)c2-c2ccccc2)cc1`, the IC50 was 47.9 nM.

In the case of `CCOc1ccc2ncc(S(=O)(=O)c3ccc(OC)cc3)c(N3CCN(C)CC3)c2c1`, the IC50 is 10.7 nM.

In the case of `c1ccc(Nc2ccnc(Nc3ccccc3)n2)cc1`, the IC50 is 1480 nM.

On to `CC(C)NC(=O)c1cc(NC(=O)c2cccs2)ccc1N1CCc2ccccc2C1`, for which the IC50 is 74.8 nM.

As to `CCOC(=O)c1c[nH]c2c3c(ccc2c1=O)CCCC3`, the IC50 is 10.8 nM.

With `Cn1ncnc2c(=O)n(C)c(=O)nc1-2`, the IC50 is 103 nM.

Turning to `CC(Oc1ccc(Cl)cc1Cl)c1nc(-c2ccc(NC(=O)c3cccs3)cc2)no1` (stereo not drawn), the IC50 is 114 nM.

As for `CN(C)CCCN(Cc1cc2cc3c(cc2[nH]c1=O)OCO3)C(=S)Nc1cccc(Cl)c1`, the IC50 was 818 nM.

On to `O=C1C2=C(Nc3ccccc3SC2c2ccc(Br)cc2)c2ccccc21` (stereo not drawn), for which the IC50 was 327 nM.

With `COc1ccc2[nH]c3ccccc3c(=O)c2c1`, the IC50 was 135 nM.

With `CCOC(=O)c1ccc2[nH]c(-c3ccccc3)cc(=O)c2c1`, the IC50 is 20 nM.

Consider `Cc1ccc(Nc2nc(NCc3ccccc3)c3ccccc3n2)cc1`, for which the IC50 is 278 nM.

For the compound `O=C(O)c1c[nH]c2cc(N3CCCCCC3)c(F)cc2c1=O`, the IC50 was > 10000 nM (inactive).

Turning to `Cc1ccc(OCC(=O)Nc2cccc(-c3nc4ncccc4o3)c2)cc1C`, the IC50 is > 10000 nM (inactive).

As to `Cc1cccc(C(=O)NCc2n[nH]c(=S)n2-c2cccc(C(F)(F)F)c2)c1`, the IC50 is > 10000 nM (inactive).

Take `CCc1cc2c(cc1-c1csc(N=C(N)N)n1)C(C)(C)CCC2(C)C`: the IC50 is 2900 nM.

In the case of `CCOC(=O)c1c(NC(C)=O)sc2c1CCN(C(C)C)C2`, the IC50 is 3010 nM.

For the compound `CCCC[n+]1ccccc1C=C1Sc2ccccc2N1CC`, the IC50 is 10.9 nM.

Turning to `CCCCCCOc1ccc(C(C)=NNC2=NCCN2)cc1[N+](=O)[O-]`, the IC50 was 784 nM.

For `CCOC(=O)C1=C(C)NC2=C(C(=O)C(C(=O)OCC)C(c3cccc(OC)c3)C2)C1c1cc(OC)c(OC)c(OC)c1` (stereo not drawn), the IC50 was 232 nM.

For `CCC(/C=C1\Sc2ccc(OC)cc2N1CCCS(=O)(=O)O)=C\c1sc2ccc(OC)cc2[n+]1CCCS(=O)(=O)O`, the IC50 is 11.2 nM.

Take `CC(=O)N(C1=C(N(C)C)C(=O)c2ccccc2C1=O)c1ccc(F)cc1`: the 50% inhibitory concentration (IC50) was 57.3 nM.

In the case of `COc1cc(OC)c(NC(=O)C2c3ccccc3C(=O)N(C)C2c2ccc(OC)c(OC)c2)cc1Cl` (stereo not drawn), the IC50 was > 9130 nM (inactive).

Turning to `O=C(c1ccc2nc(N3CCCCC3)sc2c1)N1CCN(Cc2ccc3c(c2)OCO3)CC1`, the IC50 was > 9220 nM (inactive).

With `O=c1c2c([nH]c3ccccc13)CCCCCCCCCC2`, the half-inhibitory concentration (IC50) was 99 nM.

For `c1ccc(-c2csc(Nc3nc4cc5c(cc4s3)OCO5)n2)nc1`, the IC50 was 78.9 nM.

For the compound `CCN1/C(=C/c2ccc3ccccc3[n+]2CC)Sc2sc3ccccc3c21`, the IC50 is 6.21 nM.

Consider `Cc1ccc(-c2c[n+]3c(n2-c2ccc(C)cc2)CCCCC3)cc1`, for which the IC50 was 146 nM.

With `CCCCn1c(N=Nc2c(O)[nH]c3ccccc23)nc2c1c(=O)[nH]c(=O)n2C`, the IC50 is > 10000 nM (inactive).

With `COc1ccc2nc(C)cc(Nc3ccc(Oc4ccc5ccccc5c4Cl)c(Cl)c3)c2c1`, the IC50 is 114 nM.

Consider `CCc1nc(N)nc(N)c1-c1ccc(Cl)cc1`, for which the IC50 is 2.15 nM.

For the compound `Cc1c(C#N)c2ccccc2n1CC(=O)Nc1ccc(Br)cc1`, the IC50 is > 10000 nM (inactive).

Take `CN(Cc1ccccc1)C(=O)CSc1nc(NCc2ccccc2)c2ccccc2n1`: the IC50 is 7.13 nM.

As for `CC(c1nc2ccccc2c(=O)n1C)N1CCN(C(=O)C(C)(C)C)CC1` (stereo not drawn), the IC50 was 492 nM.

Take `Cc1[nH]c2ccccc2c(=O)c1Br`: the IC50 was 214 nM.

Consider `c1ccc(-c2cc(N3CCN(c4ccccn4)CC3)nc(-c3ccccn3)n2)nc1`, for which the IC50 was 17.5 nM.

For the compound `O=C1C2=C(Nc3ccccc3SC2c2ccco2)c2ccccc21` (stereo not drawn), the IC50 is 113 nM.

In the case of `c1ccc(Cc2cc[n+](Cc3ccccc3)cc2)cc1`, the IC50 was 4520 nM.

Regarding `CCCCCc1ccc(OCCCC[n+]2cccc(C)c2)c(CCCCC)c1`, the 50% inhibitory concentration (IC50) is 34.6 nM.

Take `COc1ccc2nc(-c3ccccc3)cc(NCCN(C)C)c2c1`: the IC50 is 570 nM.

Regarding `CCCCc1c(C)[nH]c2c(OC)cccc2c1=O`, the IC50 was 561 nM.

As for `Brc1ccc(Nc2nc(NCc3ccco3)c3ccccc3n2)cc1`, the IC50 was 163 nM.

Turning to `CCCCOc1ccc(N(C(C)=O)C2=C(N3CCOCC3)C(=O)c3ccccc3C2=O)cc1`, the IC50 is 1790 nM.

For the compound `N=c1c2c(n(Cc3ccc(Cl)cc3)c3c1CCC3)CCC2`, the half-maximal inhibitory concentration (IC50) was 91.1 nM.

With `O=C1c2ccccc2C2=Nc3ccccc3SC(c3ccccc3F)C12` (stereo not drawn), the IC50 was 239 nM.

Regarding `CCCC(=O)NC(c1ccc(Cl)cc1)c1ccc2cccnc2c1O` (stereo not drawn), the IC50 is 190 nM.

`CCOC(=O)c1c(CSc2ccccc2)oc2cc(CN(C)C)c(O)c(Cl)c12`: the IC50 was 7200 nM.

As for `COc1ccc(-c2n(CC(=O)OC3CC(C)CCC3C(C)C)c3ccccc3[n+]2C)cc1` (stereo not drawn), the IC50 was 156 nM.

As for `O=[N+]([O-])c1cc(C(F)(F)F)ccc1N1CCCN(C(=S)Nc2ccccc2)CC1`, the IC50 is 2230 nM.

As for `O=C1C2=C(Nc3ccccc3SC2c2ccc(OCc3ccccc3)cc2)c2ccccc21` (stereo not drawn), the IC50 is 58 nM.

In the case of `CCCCCc1c(C)c(C#N)c2nc3ccccc3n2c1NCCN(CC)CC`, the IC50 was 702 nM.

Regarding `CCCc1nc2ccc(NC(=O)c3ccco3)cc2c(=O)n1Cc1ccc(-c2ccccc2)cc1`, the IC50 was 306 nM.

With `CN(C)c1oc(-c2ccc(Cl)cc2Cl)nc1[P+](c1ccccc1)(c1ccccc1)c1ccccc1`, the IC50 was 129 nM.

For the compound `CC1(C)C2CCC(C2)C1(C)NC(=S)NN=Cc1ccccn1` (stereo not drawn), the IC50 was 17.4 nM.

As for `O=C1N(Cc2cc3ccccc3s2)CC2CN(Cc3ccsc3)CCN12` (stereo not drawn), the IC50 is 25.5 nM.

For the compound `Cc1nc2cc(-c3ccc(I)cc3)[nH]n2c(=O)c1C`, the IC50 was 119 nM.

Consider `Nc1ccc(-c2nc3cc(Oc4ccc(Oc5ccc6[nH]c(-c7ccc(N)cc7)nc6c5)cc4)ccc3[nH]2)cc1`, for which the IC50 is 319 nM.

Regarding `COc1cc(C(=O)NCCc2ccccn2)ccc1OC1CCN(CC(c2ccccc2)c2ccccc2)CC1`, the IC50 is 1280 nM.

For the compound `CN(C)c1cc[n+](CC(=O)Nc2ccc(Cl)cc2)cc1`, the IC50 was 584 nM.

Consider `Cc1ccc(-c2[nH]n3c(=O)c4c(nc3c2C)CCCC4)cc1`, for which the IC50 was 11.3 nM.

For the compound `Cc1oc2c(c1C(=O)NC1CCS(=O)(=O)C1)C(=O)c1ccccc1C2=O` (stereo not drawn), the IC50 was 2.29 nM.

On to `CCC(C)(C)c1ccc(OCCOCC[n+]2ccccc2)c(C(C)(C)CC)c1`, for which the IC50 was 96.2 nM.

Consider `O=C1CC(c2ccccc2)CC2=C1C(c1ccccc1[N+](=O)[O-])Nc1ccccc1N2` (stereo not drawn), for which the IC50 was > 10000 nM (inactive).

Regarding `O=c1c2ccccc2[nH]c2ccc(F)cc12`, the IC50 was 223 nM.

`CC(Oc1ccc(Cl)cc1Cl)c1nc(-c2ccc(NC(=O)c3ccco3)cc2)no1` (stereo not drawn): the IC50 is 154 nM.

On to `Cc1ccc(-n2c(-c3ccccc3)cc(C=NNC(=O)c3cccc(O)c3)c2-c2ccccc2)cc1`, for which the IC50 was 20.2 nM.

As for `OCCNc1nc(Nc2ccccc2)nc2ccccc12`, the IC50 was 47.9 nM.

With `CC(=O)N(C1=C(N2CCOCC2)C(=O)c2ccccc2C1=O)c1cccc(Cl)c1`, the IC50 was 744 nM.

As to `CCN(CC)CCCNc1nc2cc(OC)c(OC)cc2c2nc(-c3ccccc3)nn12`, the IC50 is 327 nM.

As to `Cn1cnnc1SCC(=O)Nc1ccccc1C(F)(F)F`, the IC50 is > 10000 nM (inactive).

Take `CC(C)NCC(O)Cn1c2ccc(Cl)cc2c2cc(Cl)ccc21` (stereo not drawn): the IC50 was 2970 nM.

For `Clc1ccccc1-c1nc([P+](c2ccccc2)(c2ccccc2)c2ccccc2)c(N2CCOCC2)o1`, the IC50 was 95.6 nM.

`CCCCCCN(C(=O)c1ccc(C(C)(C)C)cc1)C(CC)c1nc2ccccc2c(=O)n1-c1ccc(F)cc1` (stereo not drawn): the IC50 was > 6910 nM (inactive).

As to `Cc1cccc(NC(=S)NC2CC3CCCC(C2)N3CCc2ccccc2)c1` (stereo not drawn), the IC50 is 277 nM.

`CCN(CC)CCCC(C)Nc1c2ccc(Cl)cc2nc2ccc(OC)cc12` (stereo not drawn): the IC50 is 166 nM.

With `N#Cc1c2c(c(N3CCN(Cc4ccccc4)CC3)n3c1nc1ccccc13)CCC2`, the IC50 is > 10000 nM (inactive).

In the case of `N#CCSc1nc2ccccc2c2nc(CCc3c[nH]c4ccccc34)nn12`, the IC50 was > 10000 nM (inactive).

For `CCCCCCCn1c2c(c(=N)c3ccccc31)CCC2`, the IC50 is 76.5 nM.

In the case of `COc1ccc(C2CC(=O)C3=C(C2)NC(C)=C(C(=O)OC(C)C)C3c2ccccc2OC)cc1OC` (stereo not drawn), the IC50 was > 10000 nM (inactive).

In the case of `O=C(Cc1cccs1)N1CCN(c2ccccn2)CC1`, the IC50 was > 10000 nM (inactive).

As for `CCOC(=O)c1ccc(OCC2c3cc(OC)c(OC)cc3CCN2C(=O)c2ccc([N+](=O)[O-])cc2)cc1` (stereo not drawn), the IC50 was > 10000 nM (inactive).

As to `Fc1ccccc1Nc1nc(NCc2ccccc2)c2ccccc2n1`, the IC50 was 690 nM.

Take `O=C(Nc1ccc(-c2nc3ccccc3[nH]2)cc1)c1ccc(-c2ccc(Cl)cc2)o1`: the IC50 is 6650 nM.

As for `CC(=O)N(C)C1=C(N2CCOCC2)C(=O)c2ccccc2C1=O`, the IC50 was 229 nM.

Regarding `Cc1nc([P+](c2ccccc2)(c2ccccc2)c2ccccc2)c(SCc2ccccc2)o1`, the IC50 was 33.5 nM.

In general, IC50 refers to the concentration that inhibits the measured activity by half.
